Measured values from BigSolDB 2.1.

C[C@H]1O[C@@H](n2cc(F)c(=O)[nH]c2=O)[C@H](O)[C@@H]1O
solubility (mole fraction)
Details	in 2-ethylhexanol	in methanol
278.15 K	1.43e-05	0.00296
283.15 K	2.23e-05	0.00334
288.15 K	3.13e-05	0.00414
293.15 K	4.66e-05	0.00466
298.15 K	6.85e-05	0.00561
303.15 K	9.63e-05	0.00653
308.15 K	0.000139	0.00757
313.15 K	0.000182	0.00849
318.15 K	0.000252	0.0101
323.15 K	0.000373	0.0113
328.15 K	0.000496	0.0133
